Results published in BindingDB's records for doi:10.1016/s0968-0896(02)00069-x (Universidad De Navarra, 2002).
Counter-ions that a name gives are not always drawn.

Target: Cyclin-dependent kinase 1/G2/mitotic-specific cyclin-B (Marthasterias glacialis, UniProt P15206+Q9DGD3)
Experiment: Kinase Inhibition Assay
Conditions: pH 7.2; 30 °C
Procedure: Kinase activities were assayed in buffers containing substrate, enzyme, and inhibitor at 30 °C in the presence of 15 uM ATP/ [gamma-32P] ATP. 32P incorporation was measured with a scintillation counter. The IC50 is the inhibitor concentration, which inhibits 50% of kinase activity that catalyzes the transfer of the terminal phosphate from 32P labeled ATP to the substrate.

Cyclin-dependent kinase 1/G2/mitotic-specific cyclin-B, sequence (Q9DGD3 whole entry): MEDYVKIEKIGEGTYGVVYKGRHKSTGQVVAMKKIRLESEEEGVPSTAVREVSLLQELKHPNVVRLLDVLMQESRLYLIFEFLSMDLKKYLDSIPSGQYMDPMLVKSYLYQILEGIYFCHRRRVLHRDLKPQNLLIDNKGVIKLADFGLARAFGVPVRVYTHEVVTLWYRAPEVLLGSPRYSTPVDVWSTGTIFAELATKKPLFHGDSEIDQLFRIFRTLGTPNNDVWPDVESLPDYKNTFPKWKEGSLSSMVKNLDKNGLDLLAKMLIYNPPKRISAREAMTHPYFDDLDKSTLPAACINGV
Cyclin-dependent kinase 1/G2/mitotic-specific cyclin-B, sequence (P15206 whole entry): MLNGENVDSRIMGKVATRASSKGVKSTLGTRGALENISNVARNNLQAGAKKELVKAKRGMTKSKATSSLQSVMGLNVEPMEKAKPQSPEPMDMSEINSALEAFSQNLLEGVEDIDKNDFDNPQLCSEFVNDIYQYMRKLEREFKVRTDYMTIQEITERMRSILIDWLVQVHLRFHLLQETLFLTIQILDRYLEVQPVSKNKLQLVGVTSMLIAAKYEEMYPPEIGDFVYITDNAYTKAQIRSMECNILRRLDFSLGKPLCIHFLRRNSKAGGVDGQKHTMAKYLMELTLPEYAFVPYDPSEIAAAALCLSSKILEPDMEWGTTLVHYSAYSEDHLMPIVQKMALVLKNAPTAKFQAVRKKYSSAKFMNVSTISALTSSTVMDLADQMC

Structure (SMILES)	IC50 [µM]
CCN(CC)CCn1nc(N)c2nc3ccccc3nc21 [1-[2-(diethylamino)ethyl]-1H-pyrazolo[3,4-b]quinoxalin-3-amine]	> 10
CN(C)CCn1nc(N)c2nc3ccccc3nc21 [1-[2-(dimethylamino)ethyl]-1H-pyrazolo[3,4-b]quinoxalin-3-amine]	> 10
Cc1cc2nc3c(N)nn(CCCN(C)C)c3nc2cc1C [1-[3-(dimethylamino)propyl]-6,7-dimethyl-1H-pyrazolo[3,4-b]quinoxalin-3-amine]	> 10
Nc1n[nH]c2nc3ccccc3nc12 [1H-pyrazolo[3,4-b]quinoxalin-3-amine]	0.6
Clc1ccc2nc3[nH]nc(Cl)c3nc2c1 [3,6-Dichloro-1H-pyrazolo[3,4-b]quinoxaline]	15
CN(C)CCCn1nc(N)c2nc3ccccc3nc21 [3-Amino-1-(3-dimethylamino-prop-1-yl)-1H-pyrazolo[3,4-b]quinoxaline hydrochloride]	> 10
CCN(CC)CCn1nc(N)c2nc3cc(C)c(C)cc3nc21 [3-Amino-6,7-dimethyl-1-(2-diethylamino-ethyl)-1H-pyrazolo[3,4-b]quinoxaline]	> 10
Cc1cc2nc3[nH]nc(N)c3nc2cc1C [3-Amino-6,7-dimethyl-1H-pyrazolo[3,4-b]quinoxaline]	21
CN(C)CCn1nc(N)c2nc3cc(Cl)ccc3nc21 [3-Amino-6-chloro-1-(2-dimethylamino-ethyl)-1H-pyrazolo[3,4-b]quinoxaline]	> 10
Cc1ccc2nc3[nH]nc(N)c3nc2c1 [3-Amino-6-methyl-1H-pyrazolo[3,4-b]quinoxaline]	3.5
Nc1n[nH]c2nc3ccc(C(F)(F)F)cc3nc12 [3-Amino-6-trifluoromethyl-1H-pyrazolo[3,4-b]quinoxaline]	4.5
Clc1n[nH]c2nc3ccccc3nc12 [3-Chloro-1H-pyrazolo[3,4-b]quinoxaline]	22
Nc1nn(C(=O)c2ccncc2)c2nc3ccccc3nc12 [3-amino-1-(pyridin-4-yl-carbonyl)-1H-pyrazolo[3,4-b]quinoxaline]	> 10
CCN(CC)CCn1nc(N)c2nc3cc(Cl)ccc3nc21 [6-chloro-1-[2-(diethylamino)ethyl]-1H-pyrazolo[3,4-b]quinoxalin-3-amine]	> 10
CN(C)CCCn1nc(N)c2nc3cc(Cl)ccc3nc21 [6-chloro-1-[3-(dimethylamino)propyl]-1H-pyrazolo[3,4-b]quinoxalin-3-amine]	> 10
Nc1n[nH]c2nc3ccc(Cl)cc3nc12 [6-chloro-1H-pyrazolo[3,4-b]quinoxalin-3-amine]	4.56
COc1ccc2[nH]c3nnc(N)c-3nc2c1 [6-methoxy-1H-pyrazolo[3,4-b]quinoxalin-3-amine]	4.8
